Measured values taken from patent US20150352078A1, “PHARMACEUTICAL COMPOSITION FOR DISEASES CAUSED BY PATHOGENIC MICROORGANISMS SUCH AS CANDIDA” (POLA PHARMA INC., priority 2013, published 2015).
Converted amounts (≈) assume the structure as drawn. Where two headings read alike, the source gives them in different places.

Tests used:
Trichomonas vaginalis = assay: Effect on growth of clinically isolated Trichomonas vaginalis in Trichomonas medium F (Neutral Red colour, microscopic observation); format: cell-based; conditions: for MIC: Trichomonas vaginalis, 72 hours culture, read-out: minimum growth inhibitory concentration (MIC); for Color: Neutral Red marker (yellow = acid production/growth); for Color / Result of microscopic observation: 37° C., 72 hours; for Result of microscopic observation: inverted microscope
Method: The effect on Trichomonas vaginalis was investigated for luliconazole of the compound represented by the general formula (1). That is, 5×10^6 cells of clinically isolated Trichomonas vaginalis were seeded in Trichomonas medium F (6.5 mL, contained in tube) produced by Fujiyakuhin Co., Ltd. containing Neutral Red as a marker, and the preculture was carried out for 72 hours (preculture). It was confirmed that Trichomonas grew, the acid was actively produced, and Neutral Red was changed to be yellow. After that, the preculture was added to Trichomonas medium F by every 100 μL in order to carry out the main culture, to which 0.5 mL of a test solution was added. In this situation, the number of protozoas in the solution of preculture was 1.5×10^5 cells/mL. Three series of test solutions were prepared, in which the luliconazole concentrations were 200 μM (final concentration: 35.2 μM), 100 μM (final concentration: 17.6 μM), and 50 μM (final concentration: 8.8 μM), as luliconazole dissolved in 10% methanol saline solution. 0.5 mL of vehicle was added as a control. As for the vehicle, 10% methanol saline solution (final concentration: 0 μM) was used. Stirring was sufficiently performed after the addition, followed by culturing at 37° C. for 72 hours. After the completion of the cultivation, the color was discriminated, and the state of protozoas was observed by using an inverted microscope.
The same or equivalent investigation as that of Example 1 was performed while changing luliconazole to lanoconazole.

Candida albicans = assay: In vitro antifungal activity on Candida albicans, broth microdilution method; format: cell-based; conditions: 48 hours, 80% growth inhibition, turbidity at 630 nm, read-out: minimum growth inhibitory concentration (MIC80)
Method: The minimum growth inhibitory concentration (MIC) was measured by means of the broth microdilution method (medicament ×2 dilution series) based on the use of […] medium (pH 7.0) buffered with 0.165 M morpholinopropanesulfonic acid. 100 μL of test microorganism yeast cells/sterilized physiological saline suspensions (1 to 5×10^3 cells/mL) and 100 μL of media previously added with respective compounds and medium not added with, compounds as a control were dispensed into respective wells of flat-bottom microculture plate.

protozoa = conditions: stated as known; cited from earlier work
Chlamydia = conditions: stated as known; cited from earlier work
[1] = system: Chlamydia trachomatis (D/UW3/Cx); assay: Anti-intracellular parasite action on Chlamydia trachomatis cultured in HeLa 229 host cells, fluorescent staining of inclusion bodies; format: cell-based
Method: The anti-intracellular parasite action was investigated by using Chlamydia trachomatis (D/UW3/Cx). That is, Chlamydia trachomatis was cultured in the presence of ×2 dilution series of 8 to 64 μg/ml of luliconazole by using HeLa 229 cells as the host. MEM added with 8% thermally inactivated FBS, to which 1 μg/ml of cyclohexamide was added, was used as the medium, and the culture was performed for 72 hours in 5% carbon dioxide gas at 37° C. After the culture, Chlamydia inclusion bodies were subjected to the fluorescent staining to be apple green with Chlamydia FA reagent “Seiken” (produced by DENKA SEIKEN Co., Ltd.), and the observation was performed by using a fluorescence microscope.

| Structure (SMILES) | MIC (Trichomonas vaginalis) [µM] | Color (Trichomonas vaginalis; final concentration 8.8 μM) | Color (Trichomonas vaginalis; final concentration 17.6 μM) | Result of microscopic observation (Trichomonas vaginalis; final concentration 17.6 μM) | Color (Trichomonas vaginalis; final concentration 35.2 μM) | Result of microscopic observation (Trichomonas vaginalis; final concentration 35.2 μM) | MIC80 (Candida albicans; strain IFO0197, 35° C.) [µg/mL] | MIC80 (Candida albicans; strain IFO0579, 35° C.) [µg/mL] | MIC80 (Candida albicans; strain IFO1269, 35° C.) [µg/mL] | MIC80 (Candida albicans; strain TIMM3164, 35° C.) [µg/mL] | antiprotozoal action (protozoa) | anticlamydial action (Chlamydia) | other results |
| --- | --- | --- | --- | --- | --- | --- | --- | --- | --- | --- | --- | --- | --- |
| N#C/C(=C1/SCC(c2ccccc2Cl)S1)n1ccnc1 (centres unmarked) [Lanoconazole, 4-(2-chlorophenyl)-1,3-dithiolane-2-ylidene-1-imidazolyl acetonitrile] | ~17.6 (≈ 5.63 µg/mL) | yellow | red | protozoas were observed slightly | red | no protozoa was observed | 0.125 (≈ 0.391 µM) | 0.0625 (≈ 0.195 µM) | 0.0625 (≈ 0.195 µM) | 0.5 (≈ 1.56 µM) |  |  | growth of Trichomonas (Trichomonas vaginalis; no concentration stated): inhibits the growth |
| Clc1ccc(COC(Cn2ccnc2)c2ccc(Cl)cc2Cl)c(Cl)c1 (centres unmarked) [miconazole] |  |  |  |  |  |  |  |  |  |  | do not have | do not have |  |
| N#C/C(=C1/SC[C@@H](c2ccc(Cl)cc2Cl)S1)n1ccnc1 [Luliconazole, (R)-(−)-(E)-[4-(2,4-dichlorophenyl)-1,3-dithiolane-2-ylidene]-1-imidazolyl acetonitrile] | ~8.8 (≈ 3.12 µg/mL) | yellow | red | no protozoa was observed | red | no protozoa was observed | 0.0625 (≈ 0.176 µM) | 0.0313 (≈ 0.0883 µM) | 0.0625 (≈ 0.176 µM) | 0.5 (≈ 1.41 µM) |  |  | MIC ([1]; Chlamydia trachomatis, HeLa 229 host cells, 72 hours culture, read-out: MIC with respect to Chlamydia trachomatis): 32 µg/mL (≈ 90.3 µM); observation result of Chlamydia inclusion bodies ([1]; treatment with 8 μg/mL, FIG. 1 panel (A)): dot-shaped Chlamydia inclusion bodies stained apple green were observed; observation result of Chlamydia inclusion bodies ([1]; treatment with 16 μg/mL, FIG. 1 panel (B)): dot-shaped Chlamydia inclusion bodies stained apple green were observed; observation result of Chlamydia inclusion bodies ([1]; treatment with 32 μg/mL, FIG. 1 panel (C)): No inclusion body was found; growth of Trichomonas (Trichomonas vaginalis; at 8.8 μM): inhibits the growth; Result of microscopic observation (Trichomonas vaginalis; final concentration 8.8 μM): protozoas were observed slightly |
| c1ccc(-c2ccc(C(c3ccccc3)n3ccnc3)cc2)cc1 (centres unmarked) [bifonazole] |  |  |  |  |  |  |  |  |  |  | do not have | do not have |  |
| CN(Cc1ccc(C(C)(C)C)cc1)Cc1cccc2ccccc12 [butenafine] |  |  |  |  |  |  |  |  |  |  | do not have | do not have |  |
| CCC(C)(C)c1ccc(CC(C)CN2C[C@@H](C)O[C@@H](C)C2)cc1 (some centres unmarked) [amorolfin] |  |  |  |  |  |  |  |  |  |  | do not have | do not have |  |
